Laboratory results from patent US20050288347A1, “Certain triazole-based compounds, compositions, and uses thereof” (priority 2004, published 2005).
“Also recorded” adds a separate entry of the source.

Target: protein kinase
Experiment: HTS ATP-utilizing enzyme assay, off-chip mobility-shift format (Caliper HTS 250)
Assay type: biochemical, human
Settings: test compound 10 μM; for Kinase: kinase(s) for which the compound exhibits protein kinase inhibitory activity, active = greater than three-sigma from the mean activity of inactive compounds; for protein kinase against which the compound exhibits inhibitory activity (Table 3): active = activity greater than three-sigma from the mean of the predominately inactive population for that enzyme
Description: The following procedures describe the reagent and plate preparation for a HTS of an ATP-utilizing enzyme, such as a protein kinase, run in an off-chip mobility-shift assay format. The following provides an HTS protocol for running a protein kinase HTS screen on a Caliper HTS 250 microfluidics system. The following parameters are dependent on the protein kinase used and can be determined by one skilled in the art as part of a typical assay development process. For example, the peptide substrate used can be identified from the current literature, by screening a peptide library of potential protein kinase substrates, or by other applicable means accepted in the field.
The following table provides typical screen assay parameters appropriate for a Caliper HTS 250 microfluidics system.
The reagents and buffers listed in the following table are generally applicable for developing and running an HTS screen on a human protein kinase using the Caliper HTS 250 system.
The following reagents were prepared using the previously described buffers.
A 2× Master Buffer solution was prepared by combining 200 mL of 1 M HEPES, pH 7.5, 2 mL of 10% Triton X-100, 20 mL of 10% BSA, and 778 mL of H2O.
Assays to determine the kinase inhibitory activity of chemical entities of the present disclosure were performed using a Caliper HTS 250 microfluidics device, Greiner U-bottom assay plates, a Multidrop for transfer of reagents, and Biomek FX (AMNCBM03) software. Initially, 2.4 μL of a 1 mM solution of a test compound in 100% DMSO was added to a well of the Greiner U-bottom plate. A single Greiner U-bottom plate having 24×16 wells could include multiple test compounds. […] Using the Biomek FX, 10 μL of 0.5 M EDTA was added by the span-8 to wells, indicated as 100% Control and 2.4 μL of 100% DMSO was added by the span-8 to wells, indicated as 0% Control. […] The total reaction volume in each well was 25 μL, and the concentration of the test compound was 10 μM. The assay plate was incubated for 2.5 hrs at 20° C. to 22° C. […] The inhibition of the ATP-utilizing enzyme, such as a particular protein kinase, was determined by measuring the ratio of the peptide substrate to phosphorylated product for each well of the assay plate using the Caliper HTS 250 system.
The use of three-sigma statistical limits represents a conservative method for declaring potential hits among targets. The three-sigma activity, as well as the mean population activity, can be different for each target enzyme.

SMILES | Kinase | protein kinase against which the compound exhibits inhibitory activity (Table 3)
O=C(CSc1nnc(COc2cccc3cccnc23)n1-c1ccccc1)Nc1ccccc1 | SGK1 and CDK1 | –
Cc1ccc(CCn2c(CCC3CCCC3)nnc2SCc2ccccc2)cc1 | – | AURORA-A; also recorded: c-TAK1
O=[N+]([O-])c1ccc(-c2nnc(SCCN3CCOCC3)n2-c2ccccc2)cc1 [4-(2-(5-(4-nitrophenyl)-4-phenyl-4H-1,2,4-triazol-3-ylthio)ethyl)morpholine] | – | PDGFRR-α
CCn1c(SCC(=O)NCc2ccco2)nnc1-c1ccccc1 | FYN | –
O=C(CSc1nnc(-c2ccc(O)cc2)n1Cc1ccco1)N1CCc2ccccc2C1 | GSK3-β and GSK3-α and SRC | –
COc1ccc(-c2nnc(SCC(=O)NCC3CCCCC3)n2-c2ccccc2)cc1 | AKT3 | –
O=C(CSc1nnc(CC2CCCCC2)n1-c1ccccc1)OCc1ccccc1 [benzyl 2-(5-(cyclohexylmethyl)-4-phenyl-4H-1,2,4-triazol-3-ylthio)acetate] | PDK1 and HCK | –
O=C(CSc1nnc(-c2ccncc2)n1Cc1ccco1)Nc1cccc(O)c1 | GSK3-β and GSK3-α and AKT3 | –
COCCNC(=O)CSc1nnc(-c2ccccc2O)n1-c1ccccc1OC | – | KIT
COc1ccccc1-n1c(SCC(=O)OCc2ccccc2)nnc1-c1ccco1 | GSK3-α; also recorded: AURORA-A | –
Cc1ccc(NCc2nnc(SCc3ccccc3)n2C)cc1 | – | AURORA-A
Cc1cccc(-c2nnc(SCC(=O)NCc3ccccc3)n2C)c1 [N-benzyl-2-(4-methyl-5-m-tolyl-4H-1,2,4-triazol-3-ylthio)acetamide] | MAPKAPK-2 and FYN | –
OC(CSc1nnc(-c2cccs2)[nH]1)C(F)(F)F (stereo not drawn) [1,1,1-trifluoro-3-(5-(thiophen-2-yl)-4H-1,2,4-triazol-3-ylthio)propan-2-ol] | – | AURORA-A; also recorded: DYRK2
CCn1c(SCC(=O)O)nnc1-c1ccc(S(=O)(=O)N2CCOCC2)cc1 | CDK1 | –
Fc1ccc(NCc2nnc(S)n2Cc2ccccc2)cc1 [4-benzyl-5-((4-fluorophenylamino)methyl)-4H-1,2,4-triazole-3-thiol] | CHEK2 | –
CCn1c(SCC#N)nnc1-c1ccc(S(=O)(=O)N2CCOCC2)cc1 | AURORA-A | –
COc1ccc(-c2nnc(SCC(=O)N3CCOCC3)n2-c2ccccc2)cc1 | INSR and PRAK | –
CCn1c(SCC(=O)Nc2nccs2)nnc1C1COc2ccccc2O1 (stereo not drawn) | GSK3-α; also recorded: GSK3-β | –
O=C(CSc1nnc(-c2ccc(O)cc2)n1Cc1ccco1)Nc1nccs1 | GSK3-β and GSK3-α and MSK2 | –
COc1cccc(NC(=O)CSc2nnc(CNc3ccc(C)cc3)n2C)c1 | CHEK2 | –
OC(CSc1nnc(-c2ccc(Cl)c(Cl)c2)[nH]1)C(F)(F)F (stereo not drawn) | – | AURORA-A; also recorded: FLT-3; also recorded: GSK3-β
O=C(CSc1nnc(CSc2nc3ccccc3s2)n1-c1ccccc1)N1CCN(CCO)CC1 | HCK | –
Cc1ccc(-n2c(C)nnc2SCc2nnc(S)n2-c2ccccc2)cc1 | PDGFRR-α | –
CCn1c(SCC(=O)c2ccccc2)nnc1C1CCCCC1 [2-(5-cyclohexyl-4-ethyl-4H-1,2,4-triazol-3-ylthio)-1-phenylethanone] | SRC | –
Cn1c(CNc2ccc(F)cc2)nnc1SCC(=O)Nc1ccc([N+](=O)[O-])cc1 | CHEK2 | –
NC(=O)CSc1nnc(-c2ccc(O)cc2)n1Cc1ccco1 | GSK3-β; also recorded: GSK3-α | –
CCn1c(SCC(=O)Nc2nccs2)nnc1-c1ccccc1 [2-(4-ethyl-5-phenyl-4H-1,2,4-triazol-3-ylthio)-N-(thiazol-2-yl)acetamide] | GSK3-β; also recorded: GSK3-α; also recorded: CHEK2 | –
Cc1nn(-c2ccccc2)c2sc(-c3nnc(SCCN4CCOCC4)n3C)cc12 | – | GSK3-α; also recorded: GSK3-β; also recorded: DAPK1
COc1ccccc1NC(=O)CSc1nnc(CNc2cccc(Cl)c2)n1-c1ccccc1 | MSK1 and SGK1 | –
COc1ccc(-n2c(SCC(=O)N3CCC(C)CC3)nnc2-c2ccccc2)cc1 | DAPK1 | –

The remaining lines, values ahead:

Kinase | protein kinase against which the compound exhibits inhibitory activity (Table 3) | SMILES
AURORA-A | – | CCn1c(COc2ccc(Cl)c(C)c2)nnc1SCC#N
– | AURORA-A and MSK1 | Cn1c(SCc2ccc(Cl)cc2)nnc1-c1ccncc1 [4-(5-(4-chlorobenzylthio)-4-methyl-4H-1,2,4-triazol-3-yl)pyridine]
– | c-TAK1 | CN(C)CCCSc1nnc(-c2ccc([N+](=O)[O-])cc2)[nH]1 [N,N-dimethyl-3-(5-(4-nitrophenyl)-4H-1,2,4-triazol-3-ylthio)propan-1-amine]
PDGFRR-α and FYN and FLT-3 | – | COc1ccc(NCc2nnc(SCC(=O)Nc3cccc(C(F)(F)F)c3)n2C)cc1
– | GSK3-β; also recorded: GSK3-α | Cn1c(SCc2ccccn2)nnc1-c1ccc(O)cc1 [4-(4-methyl-5-(pyridin-2-ylmethylthio)-4H-1,2,4-triazol-3-yl)phenol]
– | AURORA-A; also recorded: GSK3-α | CCCCSc1nnc(-c2ccc([N+](=O)[O-])cc2)[nH]1 [3-(butylthio)-5-(4-nitrophenyl)-4H-1,2,4-triazole]
LCK | – | CCc1cccc(C)c1NC(=O)CSc1nnc(CNc2ccc(Cl)cc2)n1CC
– | FLT-3 | CCCCSc1nnc(COc2ccc(Cl)cc2)[nH]1 [3-(butylthio)-5-((4-chlorophenoxy)methyl)-4H-1,2,4-triazole]
– | INSR and PDGFRR-α and CHEK1 | CCn1c(COc2ccc(Cl)cc2)nnc1SCCN1CCCCC1
– | AURORA-A | Cn1c(SCc2ccccc2)nnc1-c1ccncc1 [4-(5-(benzylthio)-4-methyl-4H-1,2,4-triazol-3-yl)pyridine]
– | GSK3-β and GSK3-α and MSK1 | Cn1c(SCc2ccccc2)nnc1-c1ccc(O)cc1 [4-(5-(benzylthio)-4-methyl-4H-1,2,4-triazol-3-yl)phenol]
FYN and PDGFRR-α and FLT-3 | – | CCOc1ccc(NCc2nnc(SCC(N)=O)n2-c2ccccc2)cc1
PAK2 and CHEK1 | – | Cc1ccc(NCc2nnc(SCC(=O)OC3CCCCC3)n2-c2ccccc2)cc1Cl
– | c-TAK1 | CC(C)=CCSc1nnc(Cc2ccccc2)n1Cc1ccc(Cl)c(Cl)c1
GSK3-β; also recorded: GSK3-α | – | CCn1c(S)nnc1CCc1nc2ccccc2[nH]1 [5-(2-(1H-benzo[d]imidazol-2-yl)ethyl)-4-ethyl-4H-1,2,4-triazole-3-thiol]
GSK3-β; also recorded: GSK3-α | – | CCc1nnc(NC(=O)CSc2nnc(-c3ccc(O)cc3)n2-c2cccc(Cl)c2)s1
CDK1 and CHEK2 | – | N#CCSc1nnc(COc2cccc3ccccc23)n1Cc1ccccc1
DYRK2 | – | CCOC(=O)CSc1nnc(CNc2cc(Cl)ccc2Cl)n1CC
– | AURORA-A; also recorded: GSK3-β | Cc1nnc(SCCc2ccccc2)[nH]1 [3-methyl-5-(phenethylthio)-4H-1,2,4-triazole]
AURORA-A and FYN and PDGFRR-α | – | CCOC(=O)c1c(NC(=O)CSc2nnc(CNc3ccc(OC)cc3)n2C)sc(C(C)=O)c1C
FYN | – | CNC(=O)CSc1nnc(COc2ccccc2)n1Cc1ccccc1
